Assay type in all cases: in vivo
One assay has as its system rice (Oryza sativa). Put plainly: Test B flooded paddy test, plant response rating 0-100. To be noted: Flood, 250 g ai/ha; scale 0 to 100 (0 no effect, 100 complete control); 13 to 15 days. The source says:
(§1) At time of treatment, test pots were flooded to 3 cm above the soil surface, treated by application of test compounds directly to the paddy water, and then maintained at that water depth for the duration of the test. Treated plants and controls were maintained in a greenhouse for 13 to 15 days, after which time all species were compared to controls and visually evaluated. […] A dash (-) response means no test result.

The test system of assay [1] is sedge, umbrella (small-flower umbrella sedge, Cyperus difformis). The assay is described as above. To be noted: Flood, 250 g ai/ha; scale 0 to 100 (0 no effect, 100 complete control); 13 to 15 days.
From the text: as §1

In assay [2] the test system is ducksalad (Heteranthera limosa). Described as above. To be noted: Flood, 250 g ai/ha; scale 0 to 100 (0 no effect, 100 complete control); 13 to 15 days.
From the text: as §1

Assay [3] deals with velvetleaf (Abutilon theophrasti). Put plainly: Test A pre-/postemergence greenhouse herbicide test, visual injury rating 0-100. To be noted: 1000 g ai/ha. In outline:
(§2)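 Seeds planted in loam-sand blend; preemergence directed soil spray and postemergence spray at 2–10 cm, one- to two-leaf stage, compounds formulated in non-phytotoxic solvent with surfactant. After about 10 days in greenhouse, injury rated visually against untreated controls, 0 (no effect) to 100 (complete control).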

For assay [4], the system named is wheat (Triticum aestivum). The assay is described as above. To be noted: 1000 g ai/ha. In outline: as §2
The subject of assay [5] is large (Lg) crabgrass (Digitaria sanguinalis). The description is as above. To be noted: 1000 g ai/ha. In outline:
as §2

Another assay has as its system corn (Zea mays). Described as above. The conditions noted are these: 1000 g ai/ha. In outline: as §2
Assay [6] concerns pigweed (Amaranthus retroflexus). The description is as above. The conditions noted are these: 1000 g ai/ha. In outline:
as §2

The test system of assay [7] is morningglory (Ipomoea spp.). The description is as above. The conditions noted are these: 1000 g ai/ha. In outline:
as §2

Assay [8] deals with giant foxtail (Setaria faberii). The assay is described as above. To be noted: 1000 g ai/ha. In outline:
as §2

For assay [9], the system named is barnyardgrass (Echinochloa crus-galli). Described as above. To be noted: 1000 g ai/ha. In outline:
as §2

The test system is the same in assay [10]. Put plainly: Test B flooded paddy test, plant response rating 0-100. To be noted: Flood, 250 g ai/ha; scale 0 to 100 (0 no effect, 100 complete control); 13 to 15 days.
From the text: as §1

Structures are written as SMILES.

With `Cn1cc(C(=O)c2ccccc2)c(-c2cc(Cl)c(Cl)c(Cl)c2)n1` [Compound 11], in the assay on rice (Oryza sativa), the “Plant response rating, Rice” value stood at 0. In [1], the “Plant response rating, Sedge, Umbrella” value turned out to be 0. Also, in assay [2], the “Plant response rating, Ducksalad” value is listed as 0. Further, the “Plant response rating (0 to 100 scale), Velvetleaf” value (from here on “Plant response rating … Velvetleaf”) in assay [3] (Postemergence) is on record as 80; in assay [3] (Preemergence), 70. The “Plant response rating (0 to 100 scale), Wheat” value (shortened to “Plant response rating … Wheat”) in [4] (Postemergence) and in assay [4] (Preemergence) was 0 throughout. The “Plant response rating (0 to 100 scale), Crabgrass, Large” value (shortened to “Plant response rating … Large”) in [5] (Postemergence) and in [5] (Preemergence) was 0 in each case. The “Plant response rating (0 to 100 scale), Corn” value (“Plant response rating … Corn” for short) with corn (Zea mays) (Postemergence) and with corn (Zea mays) (Preemergence) was 0 in each case. The “Plant response rating (0 to 100 scale), Pigweed” value (“Plant response rating … Pigweed” for short) in [6] (Postemergence) and in [6] (Preemergence) was 90 throughout. For the same molecule, the “Plant response rating (0 to 100 scale), Morningglory” value in assay [7] (Postemergence) and in assay [7] (Preemergence) was 0 in each case. In addition, the “Plant response rating (0 to 100 scale), Foxtail, Giant” value (“Plant response rating … Giant” below) in [8] (Postemergence) and in [8] (Preemergence) was 0 each time. The “Plant response rating (0 to 100 scale), Barnyardgrass” value in [9] (Postemergence) and in [9] (Preemergence) was 0 throughout.

For the molecule `CCn1cc(C(=O)c2ccccc2)c(-c2cc(Cl)c(Cl)c(Cl)c2)n1` [Compound 12], the “Plant response rating, Rice” value with rice (Oryza sativa) is recorded as 0. The “Plant response rating, Sedge, Umbrella” value in assay [1] is 70. Also, in assay [2], the “Plant response rating, Ducksalad” value is given as 20. Moreover, the “Plant response rating … Velvetleaf” value in assay [3] (Postemergence) amounted to 80; in [3] (Preemergence) it was 70. For the same molecule, the “Plant response rating … Wheat” value in assay [4] (Postemergence) and in [4] (Preemergence) was 0 in each case. Further, the “Plant response rating … Large” value in assay [5] (Postemergence) and in assay [5] (Preemergence) was 0 in each case. The “Plant response rating … Corn” value in the assay with corn (Zea mays) (Postemergence) and with corn (Zea mays) (Preemergence) was 0 throughout. Further, the “Plant response rating … Pigweed” value in [6] (Postemergence) is listed as 90; in assay [6] (Preemergence), 80. The “Plant response rating (0 to 100 scale), Morningglory” value in assay [7] (Postemergence) and in [7] (Preemergence) was 0 throughout. Also, the “Plant response rating … Giant” value in assay [8] (Postemergence) and in assay [8] (Preemergence) was 0 throughout. Also, the “Plant response rating (0 to 100 scale), Barnyardgrass” value in [9] (Postemergence) and in [9] (Preemergence) was 0 in each case.

With `CCn1cc(C(=O)c2ccccc2)c(-c2cc(F)cc(Cl)c2)n1` [Compound 46], in the assay with rice (Oryza sativa), the “Plant response rating, Rice” value amounted to 0. For the same molecule, the “Plant response rating, Sedge, Umbrella” value in assay [1] is on record as 0. Also, in assay [2], the “Plant response rating, Ducksalad” value stood at 0. The “Plant response rating, Barnyardgrass” value in assay [10] was found to be 0. For the same molecule, the “Plant response rating … Velvetleaf” value in assay [3] (Postemergence) and in [3] (Preemergence) was 90 in each case. In addition, the “Plant response rating … Wheat” value in [4] (Postemergence) and in assay [4] (Preemergence) was 0 in each case. Moreover, the “Plant response rating … Large” value in [5] (Postemergence) and in assay [5] (Preemergence) was 0 throughout. Further, the “Plant response rating … Corn” value in the assay on corn (Zea mays) (Postemergence) and in the assay on corn (Zea mays) (Preemergence) was 0 throughout. Besides, the entries for the “Plant response rating … Pigweed” value in assay [6] (Postemergence) and in assay [6] (Preemergence) were 90 and 100, respectively. Besides, the “Plant response rating … Giant” value in assay [8] (Postemergence) and in assay [8] (Preemergence) was 0 in each case. In addition, the “Plant response rating (0 to 100 scale), Barnyardgrass” value in assay [9] (Postemergence) and in [9] (Preemergence) was 0 in each case.
